US20260256960A1
Several values for one entry are separate records, joined by “and”; a condition that tells them apart may be missing. Equal entries are not always repeated. Entries after “also recorded” stand apart in the source; their conditions may differ. Where two headings read alike, the source gives them in different places.

How the values were obtained:
3×Tg-AD mice [1] = test system: 3×Tg-AD mice
3×Tg-AD mice [2] = test system: 3×Tg-AD mice; remark: listed apart in the source
Description: mRNA was extracted from frozen cortex or hippocampus as reported^10. Briefly, samples were homogenized with Trizol (Invitrogen) and RNA was isolated by chloroform extraction, followed by reverse transcription as described previously 11. SYBR green PCR master mix (Applied Biosystems, Foster City, CA) was used for qRT-PCR analysis. Primer sequences were designed using the National Library of Medicine Primer-BLAST tool or were obtained from PrimerBank database (Table 1) 12-14. Only primers with no predicted non-specific targets and single peak melt curves were used. Genes of interest were normalized to the expression of the reference gene 18S using the cycle threshold (Ct) value of each target gene product. The ΔΔCt method was used to compare relative differences between control and treatment groups, and the ratio by 18S or the percent change relative to 18S were used in analysis.

[3] = 5 g/kg/d i.g., 20% ethanol w/v, at 1 hour; cited from earlier work
WT mice [4] = details: WT cortex, 10-mo mice, ethanol 5 weeks
Experimental: (§1) Western blot was performed as reported previously^9,10. Brain tissue from the cerebral cortex was homogenized in lysis buffer (Tris-HCl, pH 7.5, Sucrose, EDTA, EGTA, 1% Triton X-100, protease, and phosphatase inhibitors). […] of protein were loaded into each lane on SDS polyacrylamide gels and were transferred to PVDF membranes. Membranes were washed in TBS and blocked for 1 hour at room temperature (Li-Cor Blocking Solution; 92760001) then were incubated overnight at 4° Celsius with primary antibodies (Table 1). Membranes were washed in TBS with 0.1% Tween-20 (Sigma-Aldrich, St. Louis, MO) then were incubated in the appropriate conjugated secondary antibody (Rockland H & L Pre-absorbed). Membranes were washed again in TBS and visualized using LiCor Image Studio Lite Ver 5.2. Western Blots were analyzed using Image Studio Lite software and each protein of interest was normalized to housekeeping protein GAPDH. […] The protein of interest was normalized to GAPDH for each sample and the percentage change relative to controls was calculated for each blot.

3×Tg-AD mice [5] = test system: 3×Tg-AD mice; remark: listed apart in the source
Experimental: as §1

HEBSC from 3×Tg-AD mice = assay: Hippocampal-entorhinal brain slice culture (HEBSC) from 3×Tg-AD mice, lipid / Aβ / LysoTracker staining; type: cell-based, mouse; details: for effect on ethanol-induced increase in cytosolic lipid / effect on ethanol-induced increase in intraneuronal Aβ: with ethanol
Experimental: HEBSC was performed using techniques routinely used in the laboratory^2,9,11 Briefly, sections were prepared from either the P7 or adult (6 mo) 3×-Tg-AD hippocampal-entorhinal cortex formation as described by Stoppini et al^16. […] Mice were decapitated, brains extracted and the hippocampal-entorhinal complex dissected in Gey's bugger (Sigma-Aldrich). Slices were cut transversely at 375 μm using a McIlwain tissue chopper and placed on Millicell culture inserts (Millipore, PICMORG50, up to 13 slices per insert). Slices acclimated in culture media (MEM plus 24 mM HEPES and Hank's salts, 25% horse serum, 5.5 g/L glucose, 2 mM L-glutamine) in a humified 5% CO2 incubator for seven days, followed by 12% horse serum for four days, and 6% horse serum until the completion of the experiments.

WT mice [6] = test system: WT mice
CX3CR1Cre^ERT.hM4di mice = assay: Microglial Gi DREADD inhibition in CX3CR1Cre^ERT.hM4di mice given ethanol +/- CNO; type: in vivo, mouse; details: ten days of ethanol +/- CNO
Experimental: For in vivo studies, heterozygous CX3CR1.Cre^ERT.hM4di were treated with tamoxifen (75 mg/kg/d, i.p.) for 5 days during adulthood (12 weeks of age).

[7] = 3×Tg-AD cortex, listed as ethanol
[8] = HEBSC from adult 3×Tg-AD mice, ENT region

Molecule: CCO [Ethanol, ethanol]
- increase in TUNEL+ neurodegeneration in ENT (3×Tg-AD mice [1]; 3×Tg-AD): 2.5 fold and 3 fold
- increase in cytosolic lipid (LipidSpot), ENT (3×Tg-AD mice [1]; 3×Tg-AD): 88%
- increase in cytosolic lipid (LipidSpot), FCX (3×Tg-AD mice [1]; 3×Tg-AD): 38%
- increase in extra-lysosomal cytoplasmic Aβ, ENT (3×Tg-AD mice [1]; 3×Tg-AD): 1.9 fold
- increase in extra-lysosomal cytoplasmic Aβ, FCX (3×Tg-AD mice [1]; 3×Tg-AD): 1.8 fold
- increase in intraneuronal Aβ (IF), ENT (3×Tg-AD mice [1]; 3×Tg-AD): 59%
- increase in intraneuronal Aβ (IF), FCX (3×Tg-AD mice [1]; 3×Tg-AD): 52%
- increase in lipid within Aβ+ neurons, ENT (3×Tg-AD mice [1]; 3×Tg-AD): 2.2 fold
- increase in lipid within Aβ+ neurons, FCX (3×Tg-AD mice [1]; 3×Tg-AD): 75%
- increase in lysosomal lipid in Aβ+ neurons, ENT (3×Tg-AD mice [1]; 3×Tg-AD): 3.3 fold
- increase in lysosomal lipid in Aβ+ neurons, FCX (3×Tg-AD mice [1]; 3×Tg-AD): ~ 75% and 75%
- increase in lysosomes in Aβ+ neurons, FCX and ENT (3×Tg-AD mice [1]; 3×Tg-AD): 2 fold
- increase in p-tau181 in FCX (3×Tg-AD mice [1]; 3×Tg-AD): 40%
- increase in p-tau-181 in CA1 and FCX (3×Tg-AD mice [1]; 3×Tg-AD): 40%
- reduction in total LAL in ENT and SUB (3×Tg-AD mice [1]; 3×Tg-AD): ~50%
- increase in Aβ plaques, female subiculum, dorsal (3×Tg-AD mice [1]; 3×Tg-AD females): 91%
- increase in Aβ plaques, female subiculum, ventral (3×Tg-AD mice [1]; 3×Tg-AD females): 127%
- increase in amyloid plaques in SUB (3×Tg-AD mice [1]; 3×Tg-AD females): 2 fold
- Aβ1-42 in FCX (3×Tg-AD mice [1]; 3×Tg-AD, both sexes): increased
- increase in pathogenic intraneuronal Aβ1-42 in ENT, FCX and SUB (3×Tg-AD mice [1]; 3×Tg-AD, both sexes): 55-60%
- increase in microglial (Iba-1+) lipid (3×Tg-AD mice [1]; 3×Tg-AD, chronic ethanol): 2 fold and ~ 2 fold
- increase in LAMP1+ lysosomes in Aβ-containing neurons, FCX (3×Tg-AD mice [1]; 3×Tg-AD, ethanol-treated females): ~ 2 fold
- increase in intraneuronal Aβ1-42 in ENT (3×Tg-AD mice [1]; 3×Tg-AD, midlife ethanol vs control): 57%
- increase in cytosolic lipid (LipidSpot), ENT (3×Tg-AD mice [1]; 3×Tg-AD, listed as EtOH): 80%
- reduction of Aβ lysosomal:extra-lysosomal cytoplasmic (lyso:cyto) ratio, FCX and ENT (3×Tg-AD mice [1]; 3×Tg-AD, stated for ethanol and obesity together): ~ 20%
- LAL (LIPA) gene expression (3×Tg-AD mice [2]; 3×Tg-AD): reduced
- effect on hMAPT expression, cortex or hippocampus (3×Tg-AD mice [2]; 3×Tg-AD): No effect
- effect on expression of human APP (hAPP) transgene, cortex (3×Tg-AD mice [2]; 3×Tg-AD cortex): no effect
- increase in hAPP expression, male hippocampus (3×Tg-AD mice [2]; 3×Tg-AD males, no change in females): 38%
- peak blood alcohol concentration [3]: ~ 290 mg/dL and ~ 280 mg/dL
- increase in LAMP1, females (WT mice [4]): ~ 33%
- reduction in Beclin-1 protein, females (trend, p=0.08) (WT mice [4]): 13%
- reduction in Beclin-1 protein, males (WT mice [4]): 12%
- reduction in LC3A/B (WT mice [4]): 12%
- increase in P62 protein, females (WT mice [4]; not altered in males): 33%
- increase of active p-Tyr216 GSK3β (3×Tg-AD mice [5]; 3×Tg-AD): 17%
- reduction of inactive pSer9 GSK3β (3×Tg-AD mice [5]; 3×Tg-AD): 15.6%
- effect on BACE1 levels (3×Tg-AD mice [5]; 3×Tg-AD cortex): no effect
- effect on PSEN1 levels (3×Tg-AD mice [5]; 3×Tg-AD cortex): no effect
- increase in LAMP1 protein (3×Tg-AD mice [5]; 3×Tg-AD cortex): 26%
- increase in LC3 (LC3-II) protein (3×Tg-AD mice [5]; 3×Tg-AD cortex): 20%
- increase in P62 protein (3×Tg-AD mice [5]; 3×Tg-AD cortex): 20%
- increase in p-mTOR (3×Tg-AD mice [5]; 3×Tg-AD cortex): ~ 2 fold
- reduction in Beclin-1 protein (3×Tg-AD mice [5]; 3×Tg-AD cortex): 14%
- reduction in LAL protein (3×Tg-AD mice [5]; 3×Tg-AD cortex): 19%
- reduction in TFEB protein (3×Tg-AD mice [5]; 3×Tg-AD cortex): 20%
- increase in p-mTOR (3×Tg-AD mice [5]; [7]): 2 fold
- reduction in Beclin-1 protein (3×Tg-AD mice [5]; [7]): 20%
- increase in Aβ (HEBSC from 3×Tg-AD mice; HEBSC, ethanol): 2 fold
- increase in cytosolic lipid (HEBSC from 3×Tg-AD mice; HEBSC, ethanol): 2 fold
- reduction of lysosomal acidification (LysoTracker red) (HEBSC from 3×Tg-AD mice; ethanol 100 mM, 4 days): 50%
- increase in total Aβ in ENT (WT mice [6]; 5 weeks ethanol): 36%
- increase in lipid levels in ENT (WT mice [6]; chronic ethanol): 83%
- increase in lysosomal lipid in ENT (WT mice [6]; chronic ethanol): ~ 2 fold
- increase in lysosomal lipid in ENT (WT mice [6]; chronic ethanol, listed as ethanol): 2.5 fold

Molecule: O=C(Oc1nsnc1N1CCCCC1)N1CCCCC1 [LAListat]
- effect on cytosolic lipid levels (HEBSC from 3×Tg-AD mice; [8]): concentration-dependent increase; also recorded: dose-dependent increase
- effect on intraneuronal Aβ in ENT (HEBSC from 3×Tg-AD mice; [8]): concentration-dependent increase; also recorded: dose-dependent increase

Molecule: C[N+]1([O-])CCN(C2=Nc3cc(Cl)ccc3Nc3ccccc32)CC1 [CNO]
- effect on ethanol-induced increase in cytosolic lipid (HEBSC from 3×Tg-AD mice; HEBSC from 3×Tg-AD mice): prevented
- effect on ethanol-induced proinflammatory activation of microglia in ENT (IF) (CX3CR1Cre^ERT.hM4di mice): prevented
- effect on ethanol-induced increases in total and neuronal lipid (CX3CR1Cre^ERT.hM4di mice; ENT): prevented

Molecule: O=c1c(-c2ccc(O)cc2)coc2cc(O)cc(O)c12 [genistein]
- effect on ethanol-induced increase in cytosolic lipid (HEBSC from 3×Tg-AD mice; HEBSC from 3×Tg-AD mice): did not abolish; also recorded: did not reduce; also recorded: no effect

B1: rLAL: recombinant lysosomal acid lipase / sebelipase (protein, UniProt P38571 77-399, looked up)
Lysosomal acid …: GPKPVVFLQHGLLADSSNWVTNLANSSLGFILADAGFDVWMGNSRGNTWSRKHKTLSVSQDEFWAFSYDEMAKYDLPASINFILNKTGQEQVYYVGHSQGTTIGFIAFSQIPELAKRIKMFFALGPVASVAFCTSPMAKLGRLPDHLIKDLFGDKEFLPQSAFLKWLGTHVCTHVILKELCGNLCFLLCGFNERNLNMSRVDVYTTHSPAGTSVQNMLHWSQAVKFQKFQAFDWGSSAKNYFHYNQSYPPTYNVKDMLVPTAVWSGGHDWLADVYDVNILLTQITNLVFHESIPEWEHLDFIWGLDAPWRLYNKIINLMRKYQ
- reduction of baseline Aβ levels (HEBSC from 3×Tg-AD mice; HEBSC from 3×Tg-AD mice): 50%
- effect on ethanol-induced increase in cytosolic lipid (HEBSC from 3×Tg-AD mice; HEBSC from 3×Tg-AD mice): blocked
- effect on ethanol-induced increase in intraneuronal Aβ (HEBSC from 3×Tg-AD mice; HEBSC from 3×Tg-AD mice): abolished
- effect on ethanol-induced increase in intraneuronal Aβ (HEBSC from 3×Tg-AD mice; HEBSC from 3×Tg-AD mice, listed as Recombinant LAL): blocked
